Data: US20240124460A1, “METHODS AND COMPOSITIONS FOR TARGETED PROTEIN DEGRADATION” (Ranok Therapeutics (Hangzhou) Co. Ltd., priority 2020, published 2024)
Read-outs that look alike come from different tables or passages of the source.

How the values were obtained:
ERBB2 = ERBB2 (HER2) flow cytometry protein degradation assay in BT-474 cells; format: cell-based, human; conditions: DC50, BT-474 cells, 24 hr
Summary of the method: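 BT-474 cells trypsinised after compound treatment and stained with PE-conjugated anti-ERBB2 antibody, 30 min at 25° C in the dark, then fixed in 1% paraformaldehyde for flow cytometry. % inhibition = 100−(D−B)/(S−B)*100, using treated, untreated-stained and unstained cell fluorescence.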

[1] = system: MV-4-11 human acute myeloid leukemia; experiment: MV-4-11 CCK-8 proliferation assay; format: cell-based; conditions: MV-4-11 cells, 72 hr
Summary of the method: (§1)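 Cells cultured per ATCC recommendations and treated with 3-fold serial dilutions of compound from 20 μM to 1.02 nM. Viability by CCK-8 absorbance; % inhibition computed relative to DMSO-treated cells, with cell-free medium plus DMSO as blank.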

HSP90α protein = biological target: T1, HSP90α protein (Homo sapiens, UniProt P07900); experiment: HSP90α-binding FP (BODIPY) assay; conditions: FP competition with BODIPY-labeled RNK04010
T1 construct: purchased BPS Bioscience #50298
Summary of the method: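 Fluorescence polarization measured competition with N-terminal human HSP90α, using either FITC-geldanamycin or BODIPY-labelled triazolone RNK04010 as tracer (5 nM final each). Compounds were tested in 2.5-fold dilutions from 20 μM to 5.2 nM, with incubation at 25 °C for 120 min (FITC) or 300 min (BODIPY).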

MAPK7 = MAPK7 (Homo sapiens, UniProt Q13164); experiment: MAPK7 kinase assay (ADP-Glo); format: biochemical; parameters: purchased Carna Biosciences #04-146; conditions: ATP 340 μM
Description: The inhibition of MAPK7 kinase activity by test compounds was measured by the ADP-Glo Kinase Assay (Promega, #V6930), following the manufacturer's instructions, except as noted. 3-fold serial dilutions of each test compound were prepared ranging from 50 μM to 2.54 nM. Also, as a positive control, a 4-fold serial dilution of the MAPK7 inhibitor, XMD17-109 (MedChemExpress, #HY-15665) was prepared ranging from 10 μM to 0.04 nM. In brief, in 384-well plates, test compounds were added to the kinase reaction mix containing recombinant MAPK7 protein (Carna Biosciences, #04-146; 20 nM final concentration), myelin basic protein (SignalChem Biotech, #M42-54G; 0.1 mg/ml final concentration) and ATP (340 μM final concentration), then mixed by shaking and incubated with ADP-Glo Reagent and Kinase Detection Reagent. Luminescence was measured on a BioTek plate reader.
Lumpositive: The average ratio for 10 wells of positive controls (10 μM XMD17-109) across the plate.
Lumvehicle: The average ratio for 10 wells of negative controls (0.5% DMSO) across the plate.

[2] = system: U-87 MG human glioblastoma; experiment: U87 MG CCK-8 proliferation assay; format: cell-based; conditions: U-87 MG cells, read-out: U87MG CCK-8
Summary of the method: as §1

MAPK7, sequence (Q13164 whole entry): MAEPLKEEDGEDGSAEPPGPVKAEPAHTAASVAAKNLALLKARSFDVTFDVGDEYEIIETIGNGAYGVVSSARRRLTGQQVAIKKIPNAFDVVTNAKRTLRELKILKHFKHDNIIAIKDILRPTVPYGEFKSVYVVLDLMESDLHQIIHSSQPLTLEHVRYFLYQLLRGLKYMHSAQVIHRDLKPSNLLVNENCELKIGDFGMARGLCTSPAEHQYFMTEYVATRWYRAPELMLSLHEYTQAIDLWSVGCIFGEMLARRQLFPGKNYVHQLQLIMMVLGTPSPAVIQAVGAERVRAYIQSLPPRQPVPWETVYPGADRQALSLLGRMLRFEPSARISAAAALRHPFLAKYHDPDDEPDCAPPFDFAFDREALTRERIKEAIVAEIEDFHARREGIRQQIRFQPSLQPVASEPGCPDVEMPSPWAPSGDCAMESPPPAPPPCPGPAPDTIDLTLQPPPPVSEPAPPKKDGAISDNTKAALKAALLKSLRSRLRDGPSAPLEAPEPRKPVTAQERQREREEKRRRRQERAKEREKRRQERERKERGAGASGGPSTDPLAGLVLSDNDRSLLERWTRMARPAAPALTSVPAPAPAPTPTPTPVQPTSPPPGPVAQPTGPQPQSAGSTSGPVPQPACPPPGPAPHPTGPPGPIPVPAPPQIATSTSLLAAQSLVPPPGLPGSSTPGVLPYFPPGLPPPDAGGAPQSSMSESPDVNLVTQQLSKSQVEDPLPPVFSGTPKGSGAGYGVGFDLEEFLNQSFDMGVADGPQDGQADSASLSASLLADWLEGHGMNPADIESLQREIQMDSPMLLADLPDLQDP

Row | Compound | EC50 ([1]; Homo sapiens, MV4-11) [µM] | IC50 (HSP90α protein) [µM] | IC50 (MAPK7) [µM] | EC50 ([2]; Homo sapiens, U-87 MG, 72 h) [µM] | ERBB2 degradation (ERBB2) | EC50 [1] [µM] | EC50 ([2]; 72 hr) [µM]
1 | (1R,4R)-4-((2-cyano-5-(6,6-dimethyl-4-oxo-3-(trifluoromethyl)-4,5,6,7-tetrahydro-1H-indazol-1-yl)phenyl)amino)cyclohexyl (2-(2-(1-(4-((5,11-dimethyl-6-oxo-6,11-dihydro-5H-benzo[e]pyrimido[5,4-b][1,4]diazepin-2-yl)amino)-3-ethoxyphenyl)piperidine-4-carboxamido)ethoxy)ethyl)carbamate [Compound 109] |  | > 1 | > 1 |  |  | > 1 | > 1
2 | CCOc1cc(N2CCC(C(=O)NCCOCCNC(=O)O[C@H]3CC[C@H](Nc4cc(-n5nc(C(F)(F)F)c6c5CC(C)(C)CC6=O)ccc4C(N)=O)CC3)CC2)ccc1Nc1ncc2c(n1)N(S(C)(=O)=O)c1ccccc1C(=O)N2C [Compound 105, (1R,4R)-4-((2-carbamoyl-5-(6,6-dimethyl-4-oxo-3-(trifluoromethyl)-4,5,6,7-tetrahydro-1H-indazol-1-yl)phenyl)amino)cyclohexyl (2-(2-(1-(3-ethoxy-4-((5-methyl-11-(methylsulfonyl)-6-oxo-6,11-dihydro-5H-benzo[e]pyrimido[5,4-b][1,4]diazepin-2-yl)amino)phenyl)piperidine-4-carboxamido)ethoxy)ethyl)carbamate] | 0.1 to 1 | > 1 | > 1 | > 1 | C (DC50 > 1000 nM) |  | 
3 | CCOc1cc(N2CCC(C(=O)NCCOCCNC(=O)O[C@H]3CC[C@H](Nc4cc(-n5nc(C(F)(F)F)c6c5CC(C)(C)CC6=O)ccc4C#N)CC3)CC2)ccc1Nc1ncc2c(n1)N(S(C)(=O)=O)c1ccccc1C(=O)N2C [Compound 111, (1R,4R)-4-((2-((12-azanylidene)-l3-methyl)-5-(6,6-dimethyl-4-oxo-3-(trifluoromethyl)-4,5,6,7-tetrahydro-1H-indazol-1-yl)phenyl)amino)cyclohexyl (2-(2-(1-(3-ethoxy-4-((5-methyl-11-(methylsulfonyl)-6-oxo-6,11-dihydro-5H-benzo[e]pyrimido[5,4-b][1,4]diazepin-2-yl)amino)phenyl)piperidine-4-carboxamido)ethoxy)ethyl)carbamate] | > 1 | > 1 | > 1 | > 1 |  |  | 
4 | CCOc1cc(N2CCC(C(=O)NCCOCCNC(=O)O[C@H]3CC[C@H](Nc4cc(-n5nc(C(F)(F)F)c6c5CC(C)(C)CC6=O)ccc4C(N)=O)CC3)CC2)ccc1Nc1ncc2c(n1)N(C)c1ccccc1C(=O)N2C [Compound 103, (1R,4R)-4-((2-carbamoyl-5-(6,6-dimethyl-4-oxo-3-(trifluoromethyl)-4,5,6,7-tetrahydro-1H-indazol-1-yl)phenyl)amino)cyclohexyl (2-(2-(1-(4-((5,11-dimethyl-6-oxo-6,11-dihydro-5H-benzo[e]pyrimido[5,4-b][1,4]diazepin-2-yl)amino)-3-ethoxyphenyl)piperidine-4-carboxamido)ethoxy)ethyl)carbamate] | 0.1 to 1 | > 1 | > 1 | > 1 | C (DC50 > 1000 nM) |  | 
5 | (1R,4R)-4-((2-((12-azanylidene)-l3-methyl)-5-(6,6-dimethyl-4-oxo-3-(trifluoromethyl)-4,5,6,7-tetrahydro-1H-indazol-1-yl)phenyl)amino)cyclohexyl (2-(2-(1-(3-ethoxy-4-(ethyl(5-methyl-11-(methylsulfonyl)-6-oxo-6,11-dihydro-5H-benzo[e]pyrimido[5,4-b][1,4]diazepin-2-yl)amino)phenyl)piperidine-4-carboxamido)ethoxy)ethyl)carbamate [Compound 113] |  | > 1 | > 1 |  |  | > 1 | > 1

Now from value to compound, other results behind:

Row | EC50 ([1]; Homo sapiens, MV4-11) [µM] | IC50 (HSP90α protein) [µM] | IC50 (MAPK7) [µM] | EC50 ([2]; Homo sapiens, U-87 MG, 72 h) [µM] | Compound | ERBB2 degradation (ERBB2) | EC50 [1] [µM] | EC50 ([2]; 72 hr) [µM]
6 | < 0.1 | 0.1 to 1 | > 1 | 0.1 to 1 | CCOc1cc(N2CCC(C(=O)N3CCC(CN4CCN(Cc5ccc(-n6c(C(=O)NC(C)C(F)(F)F)nnc6-c6cc(CC)c(O)cc6O)cc5)CC4)CC3)CC2)ccc1N(CC)c1ncc2c(n1)N(S(C)(=O)=O)c1ccccc1C(=O)N2C (centres unmarked) [Compound 115, 4-(4-((4-((1-(1-(3-ethoxy-4-(ethyl(5-methyl-11-(methylsulfonyl)-6-oxo-6,11-dihydro-5H-benzo[e]pyrimido[5,4-b][1,4]diazepin-2-yl)amino)phenyl)piperidine-4-carbonyl)piperidin-4-yl)methyl)piperazin-1-yl)methyl)phenyl)-5-(5-ethyl-2,4-dihydroxyphenyl)-N-(1,1,1-trifluoropropan-2-yl)-4H-1,2,4-triazole-3-carboxamide] | B (DC50 = 100-1000 nM) |  | 
7 | < 0.1 | < 0.1 | < 0.1 | < 0.1 | CCNC(=O)c1nnc(-c2cc(CC)c(O)cc2O)n1-c1ccc(CN2CCN(CC3CCN(C(=O)C4CCN(c5ccc(Nc6ncc7c(n6)N(S(C)(=O)=O)c6ccccc6C(=O)N7C)c(OCC)c5)CC4)CC3)CC2)cc1.Cl [Compound 096, 4-(4-((4-((1-(1-(3-ethoxy-4-((5-methyl-11-(methylsulfonyl)-6-oxo-6,11-dihydro-5H-benzo[e]pyrimido[5,4-b][1,4]diazepin-2-yl)amino)phenyl)piperidine-4-carbonyl)piperidin-4-yl)methyl)piperazin-1-yl)methyl)phenyl)-N-ethyl-5-(5-ethyl-2,4-dihydroxyphenyl)-4H-1,2,4-triazole-3-carboxamide] | B (DC50 = 100-1000 nM) |  | 
8 | < 0.1 | < 0.1 | > 1 | < 0.1 | CCOc1cc(N2CCC(C(=O)N3CCC(CN4CCN(Cc5ccc(-n6c(O)nnc6-c6cc(C(C)C)c(O)cc6O)cc5)CC4)CC3)CC2)ccc1N(CC)c1ncc2c(n1)N(S(C)(=O)=O)c1ccccc1C(=O)N2C [Compound 099, 2-((4-(4-(4-((4-(4-(3-(2,4-dihydroxy-5-isopropylphenyl)-5-hydroxy-4H-1,2,4-triazol-4-yl)benzyl)piperazin-1-yl)methyl)piperidine-1-carbonyl)piperidin-1-yl)-2-ethoxyphenyl)(ethyl)amino)-5-methyl-11-(methylsulfonyl)-5,11-dihydro-6H-benzo[e]pyrimido[5,4-b][1,4]diazepin-6-one] | B (DC50 = 100-1000 nM) |  | 
9 | > 1 | > 1 | > 1 | > 1 | CCOc1cc(N2CCC(C(=O)N3CCC(COc4ccc(Nc5cc(-n6nc(C(F)(F)F)c7c6CC(C)(C)CC7=O)ccc5C(N)=O)cc4)CC3)CC2)ccc1Nc1ncc2c(n1)N(S(C)(=O)=O)c1ccccc1C(=O)N2C [Compound 110, 4-(6,6-dimethyl-4-oxo-3-(trifluoromethyl)-4,5,6,7-tetrahydro-1H-indazol-1-yl)-2-((4-((1-(1-(3-ethoxy-4-((5-methyl-11-(methylsulfonyl)-6-oxo-6,11-dihydro-5H-benzo[e]pyrimido[5,4-b][1,4]diazepin-2-yl)amino)phenyl)piperidine-4-carbonyl)piperidin-4-yl)methoxy)phenyl)amino)benzamide] |  |  | 
10 | < 0.1 | < 0.1 | > 1 | 0.1 to 1 | CCOc1cc(N2CCC(C(=O)N3CCC(CN4CCN(Cc5ccc(-n6c(O)nnc6-c6cc(C(C)C)c(O)cc6O)cc5)CC4)CC3)CC2)ccc1N(CC)c1ncc2c(n1)N(C)c1ccccc1C(=O)N2C [Compound 133, 2-((4-(4-(4-((4-(4-(3-(2,4-dihydroxy-5-isopropylphenyl)-5-hydroxy-4H-1,2,4-triazol-4-yl)benzyl)piperazin-1-yl)methyl)piperidine-1-carbonyl)piperidin-1-yl)-2-ethoxyphenyl)(ethyl)amino)-5,11-dimethyl-5,11-dihydro-6H-benzo[e]pyrimido[5,4-b][1,4]diazepin-6-one] |  |  | 
11 |  | < 0.1 | > 1 |  | CCOc1cc(N2CCC(C(=O)N3CCC(N4CCN(Cc5ccc(-n6c(O)nnc6-c6cc(C(C)C)c(O)cc6O)cc5)CC4)CC3)CC2)ccc1Nc1ncc2c(n1)N(C)c1ccccc1C(=O)N2C.Cl [Compound 042, 2-((4-(4-(4-(4-(4-(3-(2,4-dihydroxy-5-isopropylphenyl)-5-hydroxy-4H-1,2,4-triazol-4-yl)benzyl)piperazin-1-yl)piperidine-1-carbonyl)piperidin-1-yl)-2-ethoxyphenyl)amino)-5,11-dimethyl-5H-benzo[e]pyrimido[5,4-b][1,4]diazepin-6(11H)-one] | B (DC50 = 100-1000 nM) | < 0.1 | < 0.1
